Broadly, the inhibition is the drop in the measured response relative to a control, in per cent.

Data set [1] concerns MSK1 phosphorylation at T581. The data set can be described thus: Phosphorylation state of MSK1. Type of data set: cell-based.
Data set [2] concerns IL-8. Description: IL-8 ELISA. Conditions: Homo sapiens, read-out: Inhibition of IL-8 cytokine production. Type of data set: cell-based. In general terms: ELISA stands for enzyme-linked immunosorbent assay.
The target of data set [3] is T1, BRD4(1) (Homo sapiens, UniProt O60885). Description: Isothermal-titration calorimetry. Type of data set: binding.
The next data set relates to c-Myc. Description: Western blot of c-Myc levels in MM.1S cells. The format is cell-based. The note with it: 6 h, concentrations approaching BRD4(1) Kd. Background: In western blotting, separated proteins are transferred to a membrane and probed.
A further data set deals with A549 cells. Description: Cytotoxicity toward A549 cells. The format is cell-based.
Another data set has as its target BRDT(1) (Homo sapiens, UniProt Q58F21). Description: Protein-observed fluorine NMR. The format is binding. The note with it: 50 μM 19F-labeled protein, W50.
In a further data set the target is BPTF (Homo sapiens, UniProt Q12830). The data set can be described thus: Protein-observed fluorine NMR. The format is binding.
Data set [4] relates to yeast GCN5-like malarial protein (pfGCN5). The data set can be described thus: Protein-observed fluorine NMR. The format is binding.
The test system of the next data set is BET D2s. The data set can be described thus: DiscoverX bromodomain-selectivity profiling, BET D2s. The format is binding, human. Conditions: 10 μM.
For data set [5], the target named is T2, p38α (Homo sapiens, UniProt Q16539). Description: DiscoverX kinase-selectivity profiling, p38α. The format is binding. The note with it: 1 μM, DiscoverX platform.
Another data set concerns the target p38β (Homo sapiens, UniProt Q15759). Description: DiscoverX kinase-selectivity profiling, p38β. Type of data set: binding. The note with it: 1 μM, DiscoverX platform.
The target of data set [6] is T2, p38α. The data set can be described thus: Cellular thermal-shift assay. The format is cell-based. The note with it: A549 cells, isothermal denaturation, dose-dependent.
For data set [7], the target named is T1, BRD4(1). The data set can be described thus: Fluorescence anisotropy, BRD4. For orientation: In fluorescence polarisation assays a small probe gives low polarisation when free and higher when bound to something large.
The next data set deals with BRD4(2) (Homo sapiens, UniProt O60885). The data set can be described thus: Fluorescence anisotropy, BRD4.
The target in a further data set is BRD4 D1 (Homo sapiens, UniProt O60885). Description: ALPHAScreen, BRD4 D1.
For a further data set, the system named is kinases. The note with it: 100 nM; no reference given; cited from earlier work.
In data set [8] the target is T1, BRD4(1). Description: Protein-observed fluorine NMR. Type of data set: binding.
The next data set relates to A549-NF-κB-luc cells. Description: NF-κB luciferase reporter assay.
Data set [9] concerns IL-8. Conditions: 20 μM; cited from earlier work.

T2 sequence (Q16539 whole entry): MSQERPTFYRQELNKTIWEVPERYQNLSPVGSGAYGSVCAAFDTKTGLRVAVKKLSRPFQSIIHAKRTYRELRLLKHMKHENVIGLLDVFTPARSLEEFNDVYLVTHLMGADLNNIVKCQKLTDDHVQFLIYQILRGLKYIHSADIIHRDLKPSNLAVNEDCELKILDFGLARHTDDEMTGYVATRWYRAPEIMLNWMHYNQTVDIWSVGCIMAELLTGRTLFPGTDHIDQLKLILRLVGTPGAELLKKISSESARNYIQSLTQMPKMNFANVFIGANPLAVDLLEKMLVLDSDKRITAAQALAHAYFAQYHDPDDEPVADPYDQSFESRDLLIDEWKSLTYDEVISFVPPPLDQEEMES
Chain of p38β (Q15759 whole entry): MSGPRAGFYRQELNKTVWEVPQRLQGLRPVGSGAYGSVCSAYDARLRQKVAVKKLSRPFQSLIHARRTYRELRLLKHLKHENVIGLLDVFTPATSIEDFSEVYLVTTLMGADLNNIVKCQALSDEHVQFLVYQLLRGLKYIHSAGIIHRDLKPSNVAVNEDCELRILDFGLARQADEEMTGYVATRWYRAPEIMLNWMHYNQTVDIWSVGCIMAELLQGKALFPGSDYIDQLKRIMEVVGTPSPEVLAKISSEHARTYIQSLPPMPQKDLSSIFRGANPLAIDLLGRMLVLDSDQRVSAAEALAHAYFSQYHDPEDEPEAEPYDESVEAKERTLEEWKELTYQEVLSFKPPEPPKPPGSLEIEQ

Consider `Cc1sc2c(c1C)C(c1ccc(Cl)cc1)=N[C@@H](CC(=O)OC(C)(C)C)c1nnc(C)n1-2` [(+)-JQ1, reference compound], for which the “MSK1 phosphorylation at T581, in words” value in [1] is on record as “not observed”. Also, the inhibition at 1 µM with IL-8 [2] came to 63%.
Turning to `Cc1ccc(Nc2nccc(-c3c(-c4ccc(F)cc4)ncn3C3CCNCC3)n2)cc1C` [Compound IV, N-(3,4-Dimethylphenyl)-4-(4-(4-fluorophenyl)-1-(piperidin-4-yl)-1H-imidazol-5-yl)pyrimidin-2-amine], the “Entropy of binding in ITC” value at BRD4(1) [3] amounted to 5.0 cal/mol/°C. Besides, in the data set on c-Myc, the “Expression of c-Myc oncoprotein, in words” value is “inhibited expression”. Moreover, the “MSK1 phosphorylation at T581, in words” value in [1] is given as “decrease in levels of MSK1 phosphorylation”. Moreover, in the data set on A549 cells, the “Concentration up to which cytotoxicity toward A549 cells is minimal” value was not above 25 µM.
Take `Cc1cc(C)cc(Nc2nccc(-c3c(-c4ccc(F)cc4)ncn3C3CCNCC3)n2)c1` [Compound V, N-(3,5-Dimethylphenyl)-4-(4-(4-fluorophenyl)-1-(piperidin-4-yl)-1H-imidazol-5-yl)pyrimidin-2-amine]: the “Small molecule needed to reach fully bound state of WPF-shelf resonance, BRDT(1)” value on BRDT(1) is “approximately 1 equiv”. Further, the “Binding to BPTF by PrOF NMR, in words” value at BPTF is recorded as “did not detect binding”. Besides, the “Binding to GCN5-like malarial protein by PrOF NMR, in words” value in [4] was “did not detect binding”. The “Inhibition of BET D2s, DiscoverX” value in the data set on BET D2s was 7−27%. In addition, on p38α [5], the “Inhibitory activity against p38α, in words” value is reported as “high inhibitory activity”. Also, the “Inhibitory activity against p38β, in words” value on p38β is recorded as “high inhibitory activity”. In addition, at p38α [6], the “Concentration above which p38α is stabilized (CETSA)” value is more than 1 nM. Moreover, the “Expression of c-Myc oncoprotein, in words” value with c-Myc is “inhibited expression”. Also, the “MSK1 phosphorylation at T581, in words” value in [1] is on record as “decrease in levels of MSK1 phosphorylation”. Besides, the “Concentration up to which cytotoxicity toward A549 cells is minimal” value with A549 cells is not above 10 µM.
With `Fc1ccc(-c2ncn(C3CCNCC3)c2-c2ccnc(Oc3cc(F)cc(F)c3)n2)cc1` [Compound VI, 2-(3,5-Difluorophenoxy)-4-(4-(4-fluorophenyl)-1-(piperidin-4-yl)-1H-imidazol-5-yl)pyrimidine], the “Binding to BRD4(1), in words” value on BRD4(1) [7] is “only bound weakly”. The “Binding to BRD4(2) / displacement of BI-BODIPY, in words” value on BRD4(2) is “only bound weakly”.
With `Cc1cc(C)cc(Nc2nccc(-c3c(C)nnn3C3CCNCC3)n2)c1` [IX, N-(3,5-Dimethylphenyl)-4-(4-methyl-1-(piperidin-4-yl)-1H-1,2,3-triazol-5-yl)pyrimidin-2-amine], the “Enhancement of binding to BRD4(1) relative to VII” value on BRD4 D1 stood at 20 fold.
`C[S+]([O-])c1ccc(-c2nc(-c3ccc(F)cc3)c(-c3ccncc3)[nH]2)cc1` (centres unmarked) [SB203580]: in the data set with kinases, the Kinase selectivity score is reported as 0.024.
On to `Cc1cc(C)cc(Nc2nccc(-c3c(-c4ccc(F)cc4)nnn3C3CCNCC3)n2)c1` [VII, N-(3,5-Dimethylphenyl)-4-(4-(4-fluorophenyl)-1-(piperidin-4-yl)-1H-1,2,3-triazol-5-yl)pyrimidin-2-amine], for which, on BRD4(1) [8], the “Binding to BRD4(1) by PrOF NMR, in words” value is listed as “bound BRD4(1) in a manner similar to that of compound V”.
With `NC(=O)c1ccc(N(C(N)=O)c2c(F)cccc2F)nc1-c1ccc(F)cc1F` [VX-702], in the data set with A549-NF-κB-luc cells, the “Inhibition in NF-κB reporter assay, in words” value is reported as “limited inhibitory effects”.
With `C=C1C(=O)O[C@H]2[C@H]1CC/C(C)=C/CC[C@@]1(C)O[C@@H]21` [parthenolide], the “IL-8 production, in words” value with IL-8 [9] is recorded as “decreased IL-8 production to baseline”.

The record behind these values is PMC6245549 (Journal of medicinal chemistry, 2018).
